Measurements: the NIST ThermoML archive (doi:10.1016/j.fluid.2013.01.017)
Numbers after ± are expanded uncertainties.

Settings: Liquid, Closed cell (Static) method

vapor or sublimation pressure (308.45 K): 6.1 ± 12 kPa
vapor or sublimation pressure (318.42 K): 10.1 ± 12 kPa
vapor or sublimation pressure (323.48 K): 12.8 ± 12 kPa
vapor or sublimation pressure (328.48 K): 16 ± 12 kPa
vapor or sublimation pressure (338.43 K): 24.3 ± 12 kPa
Structure (SMILES): FC(F)(F)C(F)(F)C(F)(F)C(F)(F)C(F)(F)C(F)(F)C(F)(F)C(F)(F)F [octadecafluorooctane]
